According to ChEMBL document CHEMBL3045125, “Isolation and Insecticidal Activity of Three Acetogenins from Seeds of Pond Apple, Annona glabra L” (1991):
The source made the active and inactive calls. The calls are words filed in the database; no cut-off is given here.

What was measured:
Callosobruchus chinensis [1] = assay: Insecticidal activity against adult of Callosobruchus chinensis assessed as mortality at 0.5 ug/insect applied topically after 24 hr relative to control; type: functional
Callosobruchus chinensis [2] = assay: Insecticidal activity against adult of Callosobruchus chinensis assessed as mortality at 1 ug/insect applied topically after 24 hr relative to control; type: functional
Tetranychus urticae = assay: Insecticidal activity against adult of Tetranychus urticae (two-spotted spider mite) in kidney bean leaf assessed as egg hatching ability after 1 week; type: functional, organism-based
Nephotettix cincticeps = assay: Insecticidal activity against 2nd-instar nymphs of Nephotettix cincticeps (green rice leafhopper) in rice seedlings assessed as lethality at 10 mg/ml after 1 week; type: functional, organism-based
Callosobruchus chinensis [3] = assay: Insecticidal activity against adult of Callosobruchus chinensis assessed as mortality at 0.1 ug/insect applied topically after 24 hr relative to control; type: functional
Mamestra brassicae = assay: Insecticidal activity against third-instar larvae of Mamestra brassicae in cabbage leaf assessed as feeding deterrent and growth inhibition at 10 mg/ml after 2 days; type: functional, organism-based
[4] = tested on: Henosepilachna vigintioctopunctata; assay: Insecticidal activity against second-instar larvae of Henosepilachna vigintioctopunctata assessed as lethality at 10 mg/ml measured everyday for 1 week; type: functional, organism-based
Callosobruchus chinensis [5] = assay: Insecticidal activity against adult of Callosobruchus chinensis assessed as mortality at 5 ug/insect applied topically after 24 hr relative to control; type: functional
Plutella xylostella = assay: Insecticidal activity against 2nd-instar larvae of Plutella xylostella (diamondback moth) in cabbage leaf assessed as lethality and growth inhibition at 0.1 mg/ml after 2 days; type: functional, organism-based
Crocidolomia = assay: Insecticidal activity against second-instar larvae of Crocidolomia binotalis in cabbage leaf assessed as growth inhibition at 10 mg/ml after 2 days; type: functional, organism-based

SMILES	Activity (Callosobruchus chinensis [1]) [%]	Activity (Callosobruchus chinensis [2]) [%]	Activity (Tetranychus urticae)	Activity (Nephotettix cincticeps)	Activity (Callosobruchus chinensis [3]) [%]	Activity (Mamestra brassicae)	Activity [4]	Activity (Callosobruchus chinensis [5]) [%]	Activity (Plutella xylostella)	Activity (Crocidolomia)
CCCCCC[C@H](O)CCC[C@H](O)[C@H]1CC[C@H]([C@H]2CC[C@H]([C@H](O)CCCCCCCCCCCCC3=C[C@H](C)OC3=O)O2)O1 [SQUAMOCIN]	20	29	inactive	Active	0	Active	Active	90	Active	Active
CCCCCCCCCC[C@H](O)[C@H]1CC[C@H]([C@H]2CC[C@H]([C@H](O)CCCCCCCCCCCCC3=C[C@H](C)OC3=O)O2)O1 [BULLANIN]	10	25			0			90		
CCCCCCCCCCC(O)C1CCC(C2CCC(C(O)CCCCCCCC[C@H](O)CC3=C[C@@H](C)OC3=O)O2)O1 (stereo partly drawn) [ASIMICIN]	60	85			15			100		
